In patent US20020026053A1, “Novel 3-(substituted) -2- indolinones compounds and use thereof as inhibitors of protein kinase activity” (priority 1997, published 2002):

System: FLK-1 receptor
Assay: FLK-1 Assay (cellular/catalytic ELISA, VEGF-stimulated phosphotyrosine)
Type: cell-based
Set-up: concentration or dose not given beside the values
Conditions: protocol P.110
Outline: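 NIH3T3 C7#3 cells engineered to express Flk-1 were serum-starved overnight (0.1% FBS), then exposed to compound for 2 h at 37 °C (final dilution 1:200, 0.5% DMSO) before VEGF stimulation. Lysates captured on anti-FLK-1 antiserum plates; phosphotyrosine detected by UB40 antibody/POD-ABTS ELISA versus untreated controls.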

| Structure (SMILES) | Flk Kinase % Inhibition (P.110) [%] |
| --- | --- |
| Cc1ccc(C)c(C=C2C(=O)Nc3c(Br)cc(Br)c(C)c32)c1 [10737/H07] | 15.5 |
| Cc1c(Br)cc(Br)c2c1C(=Cc1ccc3ccccc3c1)C(=O)N2 [10737/H08] | 10.0 |
| Cc1c(Br)cc(Br)c2c1C(=Cc1ccc(Oc3ccccc3)cc1)C(=O)N2 [10737/H09] | 5.5 |
| Cc1c(Br)cc(Br)c2c1C(=Cc1cccc(Oc3ccc(C(C)(C)C)cc3)c1)C(=O)N2 [10737/H10] | 10.5 |
| Cc1c(Br)cc(Br)c2c1C(=Cc1cccc(Oc3cccc(C(F)(F)F)c3)c1)C(=O)N2 [10737/H11] | 14.5 |
| Cc1ccc(Oc2cccc(C=C3C(=O)Nc4c(Br)cc(Br)cc43)c2)cc1 [10738/A02] | −14.2 |
| O=C1Nc2c(Br)cc(Br)cc2C1=Cc1cccc(Oc2ccc(Cl)c(Cl)c2)c1 [10738/A03] | 12.8 |
| COc1ccc(C=C2C(=O)Nc3c(Br)cc(Br)cc32)cc1O [10738/A04] | −16.2 |
| O=C1Nc2c(Br)cc(Br)cc2C1=Cc1cc(O)ccc1[N+](=O)[O-] [10738/A05] | −24.5 |
| O=C1Nc2c(Br)cc(Br)cc2C1=Cc1cccc(O)c1O [10738/A06] | 77.3 |
| O=C1Nc2c(Br)cc(Br)cc2C1=Cc1cc(O)cc(O)c1 [10738/A07] | −22.1 |
| O=C1Nc2c(Br)cc(Br)cc2C1=Cc1ccc(Cl)c(Cl)c1 [10738/A08] | −9.3 |
| COc1ccccc1C=C1C(=O)Nc2c(Br)cc(Br)cc21 [10738/A09] | −9.8 |
| CC(C)c1ccc(C=C2C(=O)Nc3c(Br)cc(Br)cc32)cc1 [10738/A10] | −8.5 |
| CCCOc1ccc(C=C2C(=O)Nc3c(Br)cc(Br)cc32)cc1 [10738/A11] | −7.5 |
| Cc1ccc(Oc2cccc(C=C3C(=O)Nc4ccc(I)cc43)c2)cc1 [10738/B02] | −8.5 |
| O=C1Nc2ccc(I)cc2C1=Cc1cccc(Oc2ccc(Cl)c(Cl)c2)c1 [10738/B03] | −1.2 |
| COc1ccc(C=C2C(=O)Nc3ccc(I)cc32)cc1O [10738/B04] | 55.0 |
| O=C1Nc2ccc(I)cc2C1=Cc1cc(O)ccc1[N+](=O)[O-] [10738/B05] | −13.1 |
| O=C1Nc2ccc(I)cc2C1=Cc1cccc(O)c1O [10738/B06] | −44.1 |
| O=C1Nc2ccc(I)cc2C1=Cc1cc(O)cc(O)c1 [10738/B07] | −22.7 |
| O=C1Nc2ccc(I)cc2C1=Cc1ccc(Cl)c(Cl)c1 [10738/B08] | −0.7 |
| COc1ccccc1C=C1C(=O)Nc2ccc(I)cc21 [10738/B09] | −6.2 |

| Structure (SMILES) | Flk Kinase % Inhibition (P.110) [%] |
| --- | --- |
| CC(C)c1ccc(C=C2C(=O)Nc3ccc(I)cc32)cc1 [10738/B10] | 14.3 |
| CCCOc1ccc(C=C2C(=O)Nc3ccc(I)cc32)cc1 [10738/B11] | 8.8 |
| Cc1ccc(Oc2cccc(C=C3C(=O)Nc4ccc(Br)c(C)c43)c2)cc1 [10738/C02] | −0.1 |
| Cc1c(Br)ccc2c1C(=Cc1cccc(Oc3ccc(Cl)c(Cl)c3)c1)C(=O)N2 [10738/C03] | 28.0 |
| COc1ccc(C=C2C(=O)Nc3ccc(Br)c(C)c32)cc1O [10738/C04] | 84.2 |
| Cc1c(Br)ccc2c1C(=Cc1cc(O)ccc1[N+](=O)[O-])C(=O)N2 [10738/C05] | −4.4 |
| Cc1c(Br)ccc2c1C(=Cc1cccc(O)c1O)C(=O)N2 [10738/C06] | −68.1 |
| Cc1c(Br)ccc2c1C(=Cc1cc(O)cc(O)c1)C(=O)N2 [10738/C07] | −7.4 |
| Cc1c(Br)ccc2c1C(=Cc1ccc(Cl)c(Cl)c1)C(=O)N2 [10738/C08] | −7.4 |
| COc1ccccc1C=C1C(=O)Nc2ccc(Br)c(C)c21 [10738/C09] | 4.5 |
| Cc1c(Br)ccc2c1C(=Cc1ccc(C(C)C)cc1)C(=O)N2 [10738/C10] | −2.5 |
| CCCOc1ccc(C=C2C(=O)Nc3ccc(Br)c(C)c32)cc1 [10738/C11] | 8.4 |
| CNS(=O)(=O)c1ccc2c(c1)C(=Cc1cccc(Oc3ccc(C)cc3)c1)C(=O)N2 [10738/D02] | 2.8 |
| CNS(=O)(=O)c1ccc2c(c1)C(=Cc1cccc(Oc3ccc(Cl)c(Cl)c3)c1)C(=O)N2 [10738/D03] | 13.6 |
| CNS(=O)(=O)c1ccc2c(c1)C(=Cc1ccc(OC)c(O)c1)C(=O)N2 [10738/D04] | −13.1 |
| CNS(=O)(=O)c1ccc2c(c1)C(=Cc1cc(O)ccc1[N+](=O)[O-])C(=O)N2 [10738/D05] | −12.5 |
| CNS(=O)(=O)c1ccc2c(c1)C(=Cc1cccc(O)c1O)C(=O)N2 [10738/D06] | −26.7 |
| CNS(=O)(=O)c1ccc2c(c1)C(=Cc1cc(O)cc(O)c1)C(=O)N2 [10738/D07] | 10.3 |
| CNS(=O)(=O)c1ccc2c(c1)C(=Cc1ccc(Cl)c(Cl)c1)C(=O)N2 [10738/D08] | 11.9 |
| CNS(=O)(=O)c1ccc2c(c1)C(=Cc1ccccc1OC)C(=O)N2 [10738/D09] | 9.4 |
| CNS(=O)(=O)c1ccc2c(c1)C(=Cc1ccc(C(C)C)cc1)C(=O)N2 [10738/D10] | 15.4 |
| CCCOc1ccc(C=C2C(=O)Nc3ccc(S(=O)(=O)NC)cc32)cc1 [10738/D11] | 10.4 |
| Cc1ccc(Oc2cccc(C=C3C(=O)Nc4ccc(S(=O)(=O)Nc5ccc(C(F)(F)F)cc5)cc43)c2)cc1 [10738/E02] | 3.6 |

| Structure (SMILES) | Flk Kinase % Inhibition (P.110) [%] |
| --- | --- |
| O=C1Nc2ccc(S(=O)(=O)Nc3ccc(C(F)(F)F)cc3)cc2C1=Cc1cccc(Oc2ccc(Cl)c(Cl)c2)c1 [10738/E03] | 7.8 |
| COc1ccc(C=C2C(=O)Nc3ccc(S(=O)(=O)Nc4ccc(C(F)(F)F)cc4)cc32)cc1O [10738/E04] | −11.5 |
| O=C1Nc2ccc(S(=O)(=O)Nc3ccc(C(F)(F)F)cc3)cc2C1=Cc1cc(O)ccc1[N+](=O)[O-] [10738/E05] | −4.8 |
| O=C1Nc2ccc(S(=O)(=O)Nc3ccc(C(F)(F)F)cc3)cc2C1=Cc1cccc(O)c1O [10738/E06] | 10.1 |
| O=C1Nc2ccc(S(=O)(=O)Nc3ccc(C(F)(F)F)cc3)cc2C1=Cc1cc(O)cc(O)c1 [10738/E07] | 43.4 |
| O=C1Nc2ccc(S(=O)(=O)Nc3ccc(C(F)(F)F)cc3)cc2C1=Cc1ccc(Cl)c(Cl)c1 [10738/E08] | 12.8 |
| COc1ccccc1C=C1C(=O)Nc2ccc(S(=O)(=O)Nc3ccc(C(F)(F)F)cc3)cc21 [10738/E09] | 21.2 |
| CC(C)c1ccc(C=C2C(=O)Nc3ccc(S(=O)(=O)Nc4ccc(C(F)(F)F)cc4)cc32)cc1 [10738/E10] | 5.1 |
| CCCOc1ccc(C=C2C(=O)Nc3ccc(S(=O)(=O)Nc4ccc(C(F)(F)F)cc4)cc32)cc1 [10738/E11] | 10.2 |
| Cc1ccc(Oc2cccc(C=C3C(=O)Nc4ccc(S(=O)(=O)N5CCOCC5)cc43)c2)cc1 [10738/F02] | 15.0 |
| O=C1Nc2ccc(S(=O)(=O)N3CCOCC3)cc2C1=Cc1cccc(Oc2ccc(Cl)c(Cl)c2)c1 [10738/F03] | 9.0 |
| COc1ccc(C=C2C(=O)Nc3ccc(S(=O)(=O)N4CCOCC4)cc32)cc1O [10738/F04] | −32.3 |
| O=C1Nc2ccc(S(=O)(=O)N3CCOCC3)cc2C1=Cc1cc(O)ccc1[N+](=O)[O-] [10738/F05] | 3.3 |
| O=C1Nc2ccc(S(=O)(=O)N3CCOCC3)cc2C1=Cc1cccc(O)c1O [10738/F06] | −12.6 |
| O=C1Nc2ccc(S(=O)(=O)N3CCOCC3)cc2C1=Cc1cc(O)cc(O)c1 [10738/F07] | 6.4 |
| O=C1Nc2ccc(S(=O)(=O)N3CCOCC3)cc2C1=Cc1ccc(Cl)c(Cl)c1 [10738/F08] | 16.8 |
| COc1ccccc1C=C1C(=O)Nc2ccc(S(=O)(=O)N3CCOCC3)cc21 [10738/F09] | 1.7 |
| CC(C)c1ccc(C=C2C(=O)Nc3ccc(S(=O)(=O)N4CCOCC4)cc32)cc1 [10738/F10] | 9.5 |
| CCCOc1ccc(C=C2C(=O)Nc3ccc(S(=O)(=O)N4CCOCC4)cc32)cc1 [10738/F11] | 15.8 |
| Cc1ccc(Oc2cccc(C=C3C(=O)Nc4ccc(CCCl)cc43)c2)cc1 [10738/G02] | −10.5 |
| O=C1Nc2ccc(CCCl)cc2C1=Cc1cccc(Oc2ccc(Cl)c(Cl)c2)c1 [10738/G03] | −4.1 |
| COc1ccc(C=C2C(=O)Nc3ccc(CCCl)cc32)cc1O [10738/G04] | −57.2 |
| O=C1Nc2ccc(CCCl)cc2C1=Cc1cc(O)ccc1[N+](=O)[O-] [10738/G05] | 4.0 |
